{
  "source": "patent US20130217713A1",
  "about": "“PREDICTIVE MARKER FOR EGFR INHIBITOR TREATMENT” (Hoffmann-La Roche Inc., priority 2007, published 2013)",
  "key": {"[1]": {"conditions": "patients with cancer, 150 mg/day; compared with targeted average plasma concentration; cited from earlier work"}, "NSCLC [2]": {"test_system": "NSCLC", "conditions": "single agent, NSCLC patients after failure of standard therapy for advanced disease; cited from earlier work"}, "advanced NSCLC": {"test_system": "advanced NSCLC", "conditions": "75 patients with qRT-PCR results"}, "NSCLC [3]": {"test_system": "NSCLC", "conditions": "cited from earlier work"}, "NSCLC [4]": {"test_system": "NSCLC", "conditions": "second line therapy of NSCLC; cited from earlier work"}},
  "note": "Read-outs that look alike come from different tables or passages of the source.",
  "data": [
    {"compound": "C#Cc1cccc(Nc2ncnc3cc(OCCOC)c(OCCOC)cc23)c1", "note": "[Tarceva, erlotinib]", "values": [
      {"measurement": "drug levels in plasma", "setting": "[1]", "value": "> 500", "unit": "ng/mL"},
      {"measurement": "survival", "setting": "NSCLC [2]", "value": "significantly prolongs and improves the survival"},
      {"measurement": "PD", "setting": "advanced NSCLC", "value": "39 (52%) n (%)"},
      {"measurement": "partial response (PR)", "setting": "advanced NSCLC", "value": "4 (5%) n (%)"}
    ]},
    {"compound": "CC(=O)O[C@@]12CO[C@@H]1C[C@H](O)[C@@]1(C)C(=O)[C@H](O)C3=C(C)[C@@H](OC(=O)[C@H](O)[C@@H](NC(=O)OC(C)(C)C)c4ccccc4)C[C@@](O)([C@@H](OC(=O)c4ccccc4)[C@H]21)C3(C)C", "note": "[docetaxel]", "values": [
      {"measurement": "survival, third-line treatment or beyond", "setting": "NSCLC [3]; docetaxel as third-line treatment or beyond", "value": "no prolongation of survival"},
      {"measurement": "survival", "setting": "NSCLC [3]; second line after cisplatin-based first-line regimens failed, ECOG 0, 1 or 2", "value": "improved survival"}
    ]},
    {"compound": "Nc1nc2[nH]cc(CCc3ccc(C(=O)N[C@@H](CCC(=O)O)C(=O)O)cc3)c2c(=O)[nH]1", "note": "[pemetrexed]", "values": [
      {"measurement": "efficacy compared with docetaxel", "setting": "NSCLC [4]", "value": "clinically equivalent efficacy"},
      {"measurement": "side effects compared with docetaxel", "setting": "NSCLC [4]", "value": "significantly fewer side effects"}
    ]}
  ]
}
